IC50 data for 21 molecules are collected here from US12643887B2, “Heterocyclic derivatives with cardiomyocyte proliferation activity for treatment of heart diseases” (Tongji University, priority 2019, dated 2026).

The target of one assay is T1, human GSK3 beta (Homo sapiens, UniProt P49841).
T1 construct: Recombinant full-length human GSK3 beta (expressed in Sf9 insect cells with an N-terminal His tag); His (N); purchased SignalChem G09-10H; host or cells: Sf9 insect cells
The assay can be described thus: GSK3 beta enzyme assay (ADP-Glo). Type of assay: biochemical. The settings on record: ATP 25 μM, read-out: GSK3b IC50. Here is the method:
1. GSK3 Beta Enzyme Assay
The ability of compounds to inhibit human GSK3 beta kinase activities was determined using a commercially available ADP-Glo™ Kinase Assay kit (Promega, Cat #V9102) according to the manufacturer's protocol. The ADP-Glo™ Kinase Assay is a luminescent ADP detection assay that provides a universal, homogeneous, high-throughput screening method to measure kinase activity by quantifying the amount of ADP produced during a kinase reaction. The ADP-Glo™ Kinase Assay can be used to monitor the activity of virtually any ADP-generating enzymes (e.g., kinases or ATPases).
Recombinant full-length human GSK3 beta (expressed in Sf9 insect cells with an N-terminal His tag) was purchased from SignalChem (Cat #G09-10H). The GSK3 substrate peptide (sequence: […](pS)EDEEE) was purchased from SignalChem (Cat #G50-58). This assay, run in a 384-well plate format, is a generic method for measuring kinase activities using an ADP-Glo Kinase Assay Kit. The basic assay procedure involves two steps: (1) Enzymatic step: inhibitors are incubated with the kinase and then ATP (included in the ADP-Glo Kinase Assay Kit) and the GSK3 substrate peptide are added to start the enzymatic reaction; (2) Detection step: after the kinase reaction, first ADP-Glo™ Reagent is added to terminate the kinase reaction and deplete the remaining ATP. Second, the Kinase Detection Reagent is added to simultaneously convert ADP to ATP and allow the newly synthesized ATP to be measured using a luciferase/luciferin reaction. The light generated is measured using a luminometer.
Briefly, GSK3 beta (4 nM) in the enzymatic buffer solutions (40 mM Tris, pH 7.5, 20 mM MgCl2, 0.1 mg/ml BSA, 50 μM DTT) were mixed with various concentrations of inhibitors (dissolved in 100% DMSO). These solutions were incubated for 30 minutes at 25° C., and subsequently a mixture of substrate peptide and ATP was added with the final peptide and ATP concentrations at 13 μM and 25 μM, respectively. The final reaction mixture of enzyme-substrate-ATP-compound was incubated for 60 minutes at 25° C.
Afterwards ADP-Glo™ Reagent was added and the mixture was incubated at 25° C. for 60 minutes. Then Kinase Detection Reagent was added and the final mixture was incubated at 25° C. for 60 minutes. The luminescence signal of the final solution was measured on an Envision instrument (PerkinElmer). The percent (%) inhibition at each concentration of a compound is calculated relative to the luminescence signal in the Max and Min control wells contained within each assay plate. […] The concentrations and percent inhibition values for a test compound are plotted and the concentration of the compound required to achieve 50% inhibition (IC50) is determined with a four-parameter logistic dose response equation.
(ADP-Glo first removes unused ATP, then detects ADP through luciferase.)

The target in another assay is T2, human HIPK1 (Homo sapiens, UniProt Q86Z02).
T2 construct: Recombinant human HIPK1 (156-555); GST (N); purchased SignalChem H03-11G; host or cells: Sf9 insect cells
Briefly: HIPK1 enzyme assay (ADP-Glo). Type of assay: biochemical. The settings on record: ADP-Glo, ATP 5 μM; read-out: HIPK1 IC50. Here is the method: The ability of compounds to inhibit human HIPK1 kinase activities was determined using a commercially available ADP-Glo™ Kinase Assay kit (Promega, Cat #V9102) according to the manufacturer's protocol.
Recombinant human HIPK1 (156-555) (expressed in Sf9 insect cells with an N-terminal GST tag) was purchased from SignalChem (Cat #H03-11G). Recombinant full length human MBP (expressed in E. Coli cells with an N-terminal GST tag) was purchased from SignalChem (Cat #M42-54G). This assay, run in a 384-well plate format, is a generic method for measuring kinase activities using an ADP-Glo Kinase Assay Kit. The basic assay procedure involves two steps: (1) Enzymatic step: inhibitors are incubated with the kinase and then ATP (included in the ADP-Glo Kinase Assay Kit) and the MBP protein are added to start the enzymatic reaction; (2) Detection step: after the kinase reaction, first ADP-Glo™ Reagent is added to terminate the kinase reaction and deplete the remaining ATP. Second, the Kinase Detection Reagent is added to simultaneously convert ADP to ATP and allow the newly synthesized ATP to be measured using a luciferase/luciferin reaction. The light generated is measured using a luminometer.
Briefly, HIPK1 (4 nM) in the enzymatic buffer solutions (40 mM Tris, pH 7.5, 20 mM MgCl2, 0.1 mg/ml BSA, 50 μM DTT) were mixed with various concentrations of inhibitors (dissolved in 100% DMSO). These solutions were incubated for 30 minutes at 25° C., and subsequently a mixture of substrate peptide and ATP was added with the final peptide and ATP concentrations at 0.05 mg/ml and 5 μM, respectively. The final reaction mixture of enzyme-substrate-ATP-compound was incubated for 90 minutes at 25° C.
Afterwards ADP-Glo™ Reagent was added and the mixture was incubated at 25° C. for 60 minutes. Then Kinase Detection Reagent was added, and the final mixture was incubated at 25° C. for 60 minutes. The luminescence signal of the final solution was measured on an Envision instrument (PerkinElmer). The percent (%) inhibition at each concentration of a compound is calculated relative to the luminescence signal in the Max and Min control wells contained within each assay plate. […] The concentrations and percent inhibition values for a test compound are plotted and the concentration of the compound required to achieve 50% inhibition (IC50) is determined with a four-parameter logistic dose response equation.

T2 sequence (Q86Z02 156-555): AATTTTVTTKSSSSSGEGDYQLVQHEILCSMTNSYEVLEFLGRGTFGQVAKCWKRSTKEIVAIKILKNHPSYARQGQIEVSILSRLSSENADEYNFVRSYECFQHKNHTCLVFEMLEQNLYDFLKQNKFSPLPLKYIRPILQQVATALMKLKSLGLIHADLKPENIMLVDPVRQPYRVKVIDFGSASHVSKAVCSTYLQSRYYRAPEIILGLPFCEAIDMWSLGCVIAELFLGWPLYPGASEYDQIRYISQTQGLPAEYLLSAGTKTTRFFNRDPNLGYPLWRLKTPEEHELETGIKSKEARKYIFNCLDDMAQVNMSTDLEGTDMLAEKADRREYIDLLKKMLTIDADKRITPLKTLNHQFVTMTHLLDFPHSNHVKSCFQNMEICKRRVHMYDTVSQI
T1 sequence (P49841 whole entry): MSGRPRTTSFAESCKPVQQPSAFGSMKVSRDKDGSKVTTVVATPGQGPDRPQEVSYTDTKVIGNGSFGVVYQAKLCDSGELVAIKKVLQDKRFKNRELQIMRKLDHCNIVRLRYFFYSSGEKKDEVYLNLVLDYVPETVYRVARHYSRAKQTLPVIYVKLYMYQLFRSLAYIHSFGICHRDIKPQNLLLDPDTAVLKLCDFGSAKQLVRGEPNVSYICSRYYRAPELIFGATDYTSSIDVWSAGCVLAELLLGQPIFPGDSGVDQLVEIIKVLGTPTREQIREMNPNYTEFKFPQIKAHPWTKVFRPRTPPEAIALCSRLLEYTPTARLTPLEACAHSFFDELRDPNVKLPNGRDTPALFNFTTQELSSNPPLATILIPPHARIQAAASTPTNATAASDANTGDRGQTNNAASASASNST

Turning to `O=C(O)CCN(C1=N/C(=C\c2ccc3c(c2)OCO3)C(=O)N1)c1ccccc1` [Example 27, (Z)-3-((4-(benzo[d][1,3]dioxol-5-ylmethylene)-5-oxo-4,5-dihydro-1H-imidazol-2-yl)(phenyl)amino)propanoic acid], the IC50 – broadly, the concentration at which inhibition is half-maximal – at human GSK3 beta was greater than 10 µM; on human HIPK1 it was 1 to 10 µM.
The like results for `O=C1NC(Nc2ccccc2)=N/C1=C\c1ccc(=O)[nH]c1` [Example 9, (Z)-5-((5-oxo-2-(phenylamino)-1,5-dihydro-4H-imidazol-4-ylidene)methyl)pyridin-2(1H)-one] were, in that order, greater than 10 µM and greater than 10 µM.
On to `Cn1ncc2cc(/C=C3\N=C(Nc4ccccc4)NC3=O)ccc21` [Example 77, (Z)-5-((1-methyl-1H-indazol-5-yl)methylene)-2-(phenylamino)-3,5-dihydro-4H-imidazol-4-one], for which the IC50 on human GSK3 beta and on human HIPK1 was greater than 10 µM in each case.
Take `COc1ccc(N(C)C2=N/C(=C\c3ccc4ncsc4c3)C(=O)N2)cc1` [Example 38, (Z)-5-(benzo[d]thiazol-6-ylmethylene)-2-((4-methoxyphenyl)(methyl)amino)-3,5-dihydro-4H-imidazol-4-one]: the values for the IC50 at human GSK3 beta and on human HIPK1 were greater than 10 µM and 1 to 10 µM, respectively.
The corresponding values for `O=C1NC(Nc2ccccc2)=N/C1=C\c1ccc2nccnc2c1` [Example 16, (Z)-2-(phenylamino)-5-(quinoxalin-6-ylmethylene)-3,5-dihydro-4H-imidazol-4-one] are 1 to 10 µM and 1 to 10 µM.
Consider `O=C1NC(Nc2ccc3ncsc3c2)=N/C1=C\c1ccc2scnc2c1` [Example 57, (Z)-5-(benzo[d]thiazol-5-ylmethylene)-2-(benzo[d]thiazol-6-ylamino)-3,5-dihydro-4H-imidazol-4-one], for which the IC50 at human GSK3 beta was greater than 10 µM; at human HIPK1, less than 0.1 µM.
As to `CN(CC1CC1)C1=N/C(=C\c2ccc3c(c2)OCO3)C(=O)N1` [Example 11, (Z)-5-(benzo[d][1,3]dioxol-5-ylmethylene)-2-((cyclopropylmethyl)(methyl)amino)-3,5-dihydro-4H-imidazol-4-one], the IC50 at human GSK3 beta and at human HIPK1 was greater than 10 µM each time.
For the molecule `CN(C1=N/C(=C\c2ccc3ncsc3c2)C(=O)N1)c1ccccc1` [Example 7, (Z)-5-(benzo[d]thiazol-6-ylmethylene)-2-(methyl(phenyl)amino)-3,5-dihydro-4H-imidazol-4-one], the IC50 at human GSK3 beta and on human HIPK1 was 1 to 10 µM in each case.
Turning to `Cn1cnc2ccc(/C=C3\N=C(Nc4ccc5ncsc5c4)NC3=O)cc21` [Example 75, (Z)-2-(benzo[d]thiazol-6-ylamino)-5-((1-methyl-1H-benzo[d]imidazol-6-yl)methylene)-3,5-dihydro-4H-imidazol-4-one], the IC50 on human GSK3 beta is 0.1 to 1 µM; at human HIPK1, less than 0.1 µM.
As for `O=C1NC(Nc2ccc3nccnc3c2)=N/C1=C\c1ccc2ncsc2c1` [Example 82, (Z)-5-(benzo[d]thiazol-6-ylmethylene)-2-(quinoxalin-6-ylamino)-3,5-dihydro-4H-imidazol-4-one], the IC50 on human GSK3 beta is 0.1 to 1 µM; at human HIPK1, greater than 10 µM.
The corresponding values for `O=C1NC(NCc2ccccc2)=N/C1=C\c1ccc2ncsc2c1` [Example 31, (Z)-5-(benzo[d]thiazol-6-ylmethylene)-2-(benzylamino)-3,5-dihydro-4H-imidazol-4-one] are 1 to 10 µM and 0.1 to 1 µM.
`CN(C1=N/C(=C\c2ccc3ncsc3c2)C(=O)N1)c1ccc(N)cc1` [Example 44, (Z)-2-((4-aminophenyl)(methyl)amino)-5-(benzo[d]thiazol-6-ylmethylene)-3,5-dihydro-4H-imidazol-4-one]: the IC50 on human GSK3 beta and at human HIPK1 was 1 to 10 µM throughout.
Take `O=C1NC(Nc2ccc3ncsc3c2)=N/C1=C\c1ccc2occc2c1` [Example 59, (Z)-2-(benzo[d]thiazol-6-ylamino)-5-(benzofuran-5-ylmethylene)-3,5-dihydro-4H-imidazol-4-one]: the IC50 at human GSK3 beta and at human HIPK1 was greater than 10 µM throughout.
Consider `CC(C)NC1=N/C(=C\c2ccc3ncsc3c2)C(=O)N1C` [Example 45, (Z)-5-(benzo[d]thiazol-6-ylmethylene)-2-(isopropylamino)-3-methyl-3,5-dihydro-4H-imidazol-4-one], for which the IC50 at human GSK3 beta and on human HIPK1 was 1 to 10 µM throughout.
Turning to `NC1=N/C(=C\c2ccc3ncsc3c2)C(=O)N1` [Example 103, (Z)-2-amino-5-(benzo[d]thiazol-6-ylmethylene)-3,5-dihydro-4H-imidazol-4-one], the IC50 at human GSK3 beta lay in the range of 1 to 10 µM; at human HIPK1, 0.1 to 1 µM.
Take `CN(C1=N/C(=C\c2ccc3[nH]cnc3c2)C(=O)N1)c1ccccc1` [Example 30, (Z)-5-((1H-benzo[d]imidazol-5-yl)methylene)-2-(methyl(phenyl)amino)-3,5-dihydro-4H-imidazol-4-one]: the IC50 at human GSK3 beta and at human HIPK1 was greater than 10 µM throughout.
In the case of `NC(=O)CCN(C1=N/C(=C\c2ccc3c(c2)OCO3)C(=O)N1)c1ccccc1` [Example 36, (Z)-3-((4-(benzo[d][1,3]dioxol-5-ylmethylene)-5-oxo-4,5-dihydro-1H-imidazol-2-yl)(phenyl)amino)propanamide], the IC50 on human GSK3 beta and at human HIPK1 was greater than 10 µM in each case.
Turning to `CN(C1=N/C(=C\c2ccc3ncsc3c2)C(=O)N1)c1ccc(Cl)cc1` [Example 24, (Z)-5-(benzo[d]thiazol-6-ylmethylene)-2-((4-chlorophenyl)(methyl)amino)-3,5-dihydro-4H-imidazol-4-one], the IC50 on human GSK3 beta and at human HIPK1 was greater than 10 µM each time.
For the molecule `O=C1NC(Nc2ccc3nc(Nc4ccccc4)sc3c2)=N/C1=C\c1ccc2ncsc2c1` [Example 104, (Z)-5-(benzo[d]thiazol-6-ylmethylene)-2-((2-(phenylamino)benzo[d]thiazol-6-yl)amino)-3,5-dihydro-4H-imidazol-4-one], the IC50 at human GSK3 beta and on human HIPK1 was greater than 10 µM throughout.
On to `O=C1NC(Nc2ccc3ncsc3c2)=N/C1=C\c1ccc2[nH]ccc2c1` [Example 58, (Z)-5-((1H-indol-5-yl)methylene)-2-(benzo[d]thiazol-6-ylamino)-3,5-dihydro-4H-imidazol-4-one], for which the IC50 on human GSK3 beta and at human HIPK1 was greater than 10 µM in each case.
`O=C1NC(Nc2ccc3ncsc3c2)=N/C1=C\c1ccc2cccnc2c1` [Example 60, (Z)-2-(benzo[d]thiazol-6-ylamino)-5-(quinolin-7-ylmethylene)-3,5-dihydro-4H-imidazol-4-one]: the IC50 on human GSK3 beta and on human HIPK1 was greater than 10 µM throughout.
